From US20140051679A1, “KINASE INHIBITORS AND METHOD OF TREATING CANCER WITH SAME” (UNIVERISTY HEALTH NETWORKS, priority 2011, published 2014)

How the values were obtained:
human PLK4 = biological target: T1, human PLK4 (Homo sapiens, UniProt O00444); experiment: PLK4 inhibition assay (indirect ELISA); type: biochemical; conditions: GST-PLK4 4 nM, 15 μM ATP; read-out: IC50 Ranges PLK4
T1 construct: amino terminal GST fusion of residues 1-391 of human PLK4; made in house; host or cells: E. coli
T1 sequence (O00444 1-391): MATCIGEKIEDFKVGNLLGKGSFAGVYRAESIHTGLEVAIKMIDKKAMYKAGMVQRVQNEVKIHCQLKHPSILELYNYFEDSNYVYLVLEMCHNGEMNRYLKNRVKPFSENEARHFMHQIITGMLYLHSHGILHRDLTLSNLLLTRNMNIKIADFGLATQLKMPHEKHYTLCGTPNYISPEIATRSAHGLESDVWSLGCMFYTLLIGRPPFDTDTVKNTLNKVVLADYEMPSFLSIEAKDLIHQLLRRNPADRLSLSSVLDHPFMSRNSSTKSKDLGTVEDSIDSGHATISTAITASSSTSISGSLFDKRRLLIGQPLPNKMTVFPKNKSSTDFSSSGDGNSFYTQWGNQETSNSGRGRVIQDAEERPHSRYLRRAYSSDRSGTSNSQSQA
Outline: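 Compounds were tested either at a single 10 μM dose or across 10-point titrations (typically 0.5 to 0.001 μM), preincubated 15 min with 4 nM GST-PLK4 (human 1-391, dephosphorylated) before 15 μM ATP was added. MBP substrate phosphorylation over 30 min, pH 7.5 HEPES/MgCl2 buffer, read by HRP/TMB ELISA (450 nm). % inhibition vs. high-activity control; IC50 by logistic fit.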

[1] = test system: MDA-MB-231 breast cancer cells; experiment: Cell growth inhibition, Sulforhodamine B assay, MDA-MB-231; type: cell-based; conditions: Homo sapiens, 120 h, 5 days culture, SRB assay, read-out: Cell Line GI50 Range MDA-MB-231
[2] = test system: MDA-MB-468 breast cancer cells; experiment: Cell growth inhibition, Sulforhodamine B assay, MDA-MB-468; type: cell-based; conditions: Homo sapiens, 120 h, 5 days culture, SRB assay, read-out: Cell Line GI50 Range MDA-MB-468
[3] = test system: HCT116 colon cancer cells; experiment: Cell growth inhibition, Sulforhodamine B assay, HCT116; type: cell-based; conditions: Homo sapiens, HCT-116, 120 h, 5 days culture, SRB assay, read-out: Cell Line GI50 Range HCT116
human TTK = biological target: T2, human TTK (Homo sapiens, UniProt P33981); experiment: TTK inhibition assay (indirect ELISA); type: biochemical; conditions: GST-TTK 0.68 nM, 16 μM ATP; read-out: IC50 Ranges TTK
T2 construct: amino terminal GST fusion of full length human TTK; purchased Invitrogen
T2 sequence (P33981 1-857): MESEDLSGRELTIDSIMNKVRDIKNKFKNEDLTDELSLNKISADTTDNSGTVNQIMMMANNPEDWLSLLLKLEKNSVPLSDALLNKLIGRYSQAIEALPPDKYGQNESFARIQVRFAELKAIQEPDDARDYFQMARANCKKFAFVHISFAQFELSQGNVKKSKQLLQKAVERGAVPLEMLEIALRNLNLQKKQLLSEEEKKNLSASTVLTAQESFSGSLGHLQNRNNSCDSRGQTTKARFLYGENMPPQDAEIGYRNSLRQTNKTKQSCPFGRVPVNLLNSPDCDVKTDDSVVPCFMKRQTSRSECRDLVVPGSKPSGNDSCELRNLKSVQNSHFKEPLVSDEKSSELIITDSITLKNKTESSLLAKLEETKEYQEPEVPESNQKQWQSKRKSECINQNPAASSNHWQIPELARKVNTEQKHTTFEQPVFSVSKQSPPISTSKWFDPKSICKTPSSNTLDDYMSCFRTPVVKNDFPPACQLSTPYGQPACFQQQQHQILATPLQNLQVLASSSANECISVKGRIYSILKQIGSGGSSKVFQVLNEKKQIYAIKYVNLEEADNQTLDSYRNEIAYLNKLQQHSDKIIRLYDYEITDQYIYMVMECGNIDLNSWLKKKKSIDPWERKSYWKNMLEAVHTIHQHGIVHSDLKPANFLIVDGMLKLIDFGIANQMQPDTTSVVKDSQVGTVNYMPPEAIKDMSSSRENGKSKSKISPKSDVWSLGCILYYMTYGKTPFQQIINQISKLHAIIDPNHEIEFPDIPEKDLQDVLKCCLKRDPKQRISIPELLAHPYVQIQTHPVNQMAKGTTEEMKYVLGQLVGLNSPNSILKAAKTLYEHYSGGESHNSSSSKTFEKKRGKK

Aurora B = biological target: T3, Aurora B (Homo sapiens, UniProt Q96GD4); experiment: Aurora B inhibition assay (Z-Lyte); type: biochemical; conditions: 28 nM Aurora B, 128 μM ATP; read-out: IC50 Ranges Aurora B
T3 construct: purchased Invitrogen PV3970
T3 sequence (Q96GD4 whole entry): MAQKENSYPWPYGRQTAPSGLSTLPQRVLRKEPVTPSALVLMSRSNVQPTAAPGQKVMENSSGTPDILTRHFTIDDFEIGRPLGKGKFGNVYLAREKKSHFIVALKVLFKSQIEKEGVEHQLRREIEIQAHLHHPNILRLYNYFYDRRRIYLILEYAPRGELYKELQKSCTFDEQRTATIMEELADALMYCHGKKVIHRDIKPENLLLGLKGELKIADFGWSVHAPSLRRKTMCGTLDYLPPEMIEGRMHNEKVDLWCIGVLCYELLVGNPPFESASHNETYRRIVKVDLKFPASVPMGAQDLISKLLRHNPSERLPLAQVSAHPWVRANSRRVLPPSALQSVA
Method: Aurora B inhibition was determined using the Z-Lyte assay kit from Invitrogen. The assay was performed using the recommended manufacturer's instructions with 128 μM ATP and 28 nM Aurora B (Invitrogen cat #PV3970). The % inhibition values were determined according to the manufacturer's directions and IC50 values were obtained using a non-linear 4 point logistic curve fit (XLfit4, IDBS)

HT29 colon cancer cells = experiment: Cell growth inhibition, Sulforhodamine B assay, HT29; type: cell-based; conditions: Homo sapiens, HT-29, 120 h, 5 days culture, SRB assay, read-out: Cell Line GI50 Range HT29
[4] = test system: OVCAR-3 ovarian cancer cells; experiment: Cell growth inhibition, Sulforhodamine B assay, OVCAR-3; type: cell-based; conditions: Homo sapiens, 120 h, 5 days culture, SRB assay, read-out: Cell Line GI50 Range OVCAR-3

Row | SMILES | IC50 (human PLK4) [µM] | GI50 [1] [µM] | GI50 [2] [µM] | GI50 [3] [µM] | IC50 (human TTK) [µM] | IC50 (Aurora B) [µM] | GI50 (HT29 colon cancer cells) [µM] | GI50 [4] [µM]
1 | CN1CCOc2cc(-c3n[nH]c4ccc(NC(=O)C(c5ccsc5)N5CCCC5)cc34)ccc21 (stereo not drawn) [Example A17, N-(3-(4-methyl-3,4-dihydro-2H-benzo[b][1,4]oxazin-7-yl)-1H-indazol-5-yl)-2-(pyrrolidin-1-yl)-2-(thiophen-3-yl)acetamide] | ≤ 5 | ≤ 5 | ≤ 5 | ≤ 5 | ≤ 5 | ≤ 5 | – | –
2 | COc1cc(-c2n[nH]c3ccc(C(=O)NC(c4ccccc4)C4CC4)cc23)ccc1OC1CCN(C)CC1 (stereo not drawn) [Example A19, N-(cyclopropyl(phenyl)methyl)-3-(3-methoxy-4-((1-methylpiperidin-4-yl)oxy)phenyl)-1H-indazole-5-carboxamide] | ≤ 5 | ≤ 5 | ≤ 5 | ≤ 5 | ≤ 5 | ≤ 5 | – | –
3 | O=C(Nc1ccc2[nH]nc(-c3ccc4c(c3)OCCCO4)c2c1)C(c1ccsc1)N1CCCC1 (stereo not drawn) [Example A20, N-(3-(3,4-dihydro-2H-benzo[b][1,4]dioxepin-7-yl)-1H-indazol-5-yl)-2-(pyrrolidin-1-yl)-2-(thiophen-3-yl)acetamide] | ≤ 5 | ≤ 5 | ≤ 5 | ≤ 5 | ≤ 5 | ≤ 5 | – | –
4 | COc1cc(-c2n[nH]c3ccc(NC(=O)C(c4ccsc4)N4CCCC4)cc23)ccc1OC1CCN(C)CC1 (stereo not drawn) [Example A21, N-(3-(3-methoxy-4-((1-methylpiperidin-4-yl)oxy)phenyl)-1H-indazol-5-yl)-2-(pyrrolidin-1-yl)-2-(thiophen-3-yl)acetamide] | ≤ 5 | ≤ 5 | ≤ 5 | ≤ 5 | ≤ 5 | ≤ 5 | – | –
5 | O=C(Nc1ccc2[nH]nc(-c3ccc(N4CCOCC4)cc3)c2c1)C1CCCc2ccccc21 (stereo not drawn) [Example A22, N-(3-(4-morpholinophenyl)-1H-indazol-5-yl)-1,2,3,4-tetrahydronaphthalene-1-carboxamide] | ≤ 5 | ≤ 5 | ≤ 5 | ≤ 5 | ≤ 5 | 5 to 50 | – | –
6 | CN1CCC(Oc2ccc(-c3n[nH]c4ccc(C(=O)N[C@@H]5CCCc6ccccc65)cc34)cc2)CC1 [Example A26, (R)-3-(4-((1-methylpiperidin-4-yl)oxy)phenyl)-N-(1,2,3,4-tetrahydronaphthalen-1-yl)-1H-indazole-5-carboxamide] | ≤ 5 | ≤ 5 | ≤ 5 | ≤ 5 | ≤ 5 | – | ≤ 5 | ≤ 5
7 | C[C@H](NC(=O)c1ccc2[nH]nc(-c3ccc(N4CCOCC4)cc3)c2c1)C1CCCCC1 [Example A40, (S)—N-(1-cyclohexylethyl)-3-(4-morpholinophenyl)-1H-indazole-5-carboxamide] | ≤ 5 | ≤ 5 | ≤ 5 | ≤ 5 | ≤ 5 | – | ≤ 5 | ≤ 5
8 | C[C@@H](NC(=O)c1ccc2[nH]nc(-c3ccc(N4CCOCC4)cc3)c2c1)C1CCCCC1 [Example A48, (R)—N-(1-cyclohexylethyl)-3-(4-morpholinophenyl)-1H-indazole-5-carboxamide] | ≤ 5 | ≤ 5 | ≤ 5 | ≤ 5 | ≤ 5 | – | ≤ 5 | 5 to 20
9 | C[C@@H](NC(=O)c1ccc2[nH]nc(-c3ccc(N4CCOCC4)cc3)c2c1)c1cccs1 [Example A53, (R)-3-(4-morpholinophenyl)-N-(1-(thiophen-2-yl)ethyl)-1H-indazole-5-carboxamide] | ≤ 5 | ≤ 5 | ≤ 5 | ≤ 5 | ≤ 5 | – | ≤ 5 | 5 to 20
10 | CN1CCC(Oc2ccc(-c3n[nH]c4ccc(NC(=O)Nc5ccccc5F)cc34)cc2)CC1 [Example A56, 1-(2-fluorophenyl)-3-(3-(4-((1-methylpiperidin-4-yl)oxy)phenyl)-1H-indazol-5-yl)urea] | ≤ 5 | ≤ 5 | ≤ 5 | ≤ 5 | ≤ 5 | – | ≤ 5 | 5 to 20
11 | Cc1cc(-c2n[nH]c3ccc(NC(=O)C(c4ccsc4)N4CCCC4)cc23)ccc1N1CCOCC1 (stereo not drawn) [Example A59, N-(3-(3-methyl-4-morpholinophenyl)-1H-indazol-5-yl)-2-(pyrrolidin-1-yl)-2-(thiophen-3-yl)acetamide] | ≤ 5 | ≤ 5 | ≤ 5 | ≤ 5 | ≤ 5 | – | ≤ 5 | 5 to 20
12 | O=C(Nc1ccc2[nH]nc(-c3ccc(N4CCOCC4)c(F)c3)c2c1)C(c1ccsc1)N1CCCC1 (stereo not drawn) [Example A60, N-(3-(3-fluoro-4-morpholinophenyl)-1H-indazol-5-yl)-2-(pyrrolidin-1-yl)-2-(thiophen-3-yl)acetamide] | ≤ 5 | ≤ 5 | ≤ 5 | ≤ 5 | ≤ 5 | – | ≤ 5 | 5 to 20
13 | O=C(NC(c1ccccc1)C1CC1)c1ccc2[nH]nc(-c3cccc(N4CCOCC4)c3)c2c1 (stereo not drawn) [Example A61, N-(cyclopropyl(phenyl)methyl)-3-(3-morpholinophenyl)-1H-indazole-5-carboxamide] | ≤ 5 | 5 to 20 | 5 to 20 | ≤ 5 | ≤ 5 | – | ≤ 5 | 5 to 20
14 | O=C(Nc1ccc2[nH]nc(-c3ccc(NC4CCCC4)cc3)c2c1)C(c1ccsc1)N1CCCC1 (stereo not drawn) [Example A70, N-(3-(4-(cyclopentylamino)phenyl)-1H-indazol-5-yl)-2-(pyrrolidin-1-yl)-2-(thiophen-3-yl)acetamide] | ≤ 5 | – | ≤ 5 | ≤ 5 | ≤ 5 | – | ≤ 5 | ≤ 5
15 | CN1CCC(Oc2ccc(-c3n[nH]c4ccc(NC(=O)Nc5c(Cl)cccc5Cl)cc34)cc2)CC1 [Example A76, 1-(2,6-dichlorophenyl)-3-(3-(4-((1-methylpiperidin-4-yl)oxy)phenyl)-1H-indazol-5-yl)urea] | ≤ 5 | – | ≤ 5 | ≤ 5 | ≤ 5 | ≤ 5 | ≤ 5 | 5 to 20
